# Assay results published in patent US9750747B2, “Treatments involving eslicarbazepine acetate or eslicarbazepine” (BAIL-PORTELA & CA, S.A., priority 2011, dated 2017).
# Read-outs that look alike come from different tables or passages of the source.
# Tests used:
# Assay type in all cases: cell-based
# α1β2γ2 GABA receptors = target: T1, α1β2γ2 GABA receptors (Homo sapiens, UniProt P14867+P18507+P47870); experiment: whole-cell patch-clamp, sub-maximal GABA inward currents in stably transfected Ltk cells
# T1 construct: host or cells: Ltk cells, expression induced with dexamethasone
# T1 sequence (P14867 28-456): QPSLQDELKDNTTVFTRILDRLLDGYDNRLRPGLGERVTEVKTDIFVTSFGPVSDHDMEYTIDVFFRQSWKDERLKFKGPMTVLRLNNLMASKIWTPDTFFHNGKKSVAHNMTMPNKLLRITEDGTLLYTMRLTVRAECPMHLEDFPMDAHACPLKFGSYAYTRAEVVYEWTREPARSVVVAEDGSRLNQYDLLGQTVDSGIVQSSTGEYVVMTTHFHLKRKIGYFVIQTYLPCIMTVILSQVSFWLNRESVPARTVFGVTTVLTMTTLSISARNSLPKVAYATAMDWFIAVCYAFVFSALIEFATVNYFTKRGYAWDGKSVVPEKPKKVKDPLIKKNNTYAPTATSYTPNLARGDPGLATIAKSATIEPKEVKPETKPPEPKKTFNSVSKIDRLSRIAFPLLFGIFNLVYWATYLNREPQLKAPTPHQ
# T1 sequence (P47870 25-512 limits assumed): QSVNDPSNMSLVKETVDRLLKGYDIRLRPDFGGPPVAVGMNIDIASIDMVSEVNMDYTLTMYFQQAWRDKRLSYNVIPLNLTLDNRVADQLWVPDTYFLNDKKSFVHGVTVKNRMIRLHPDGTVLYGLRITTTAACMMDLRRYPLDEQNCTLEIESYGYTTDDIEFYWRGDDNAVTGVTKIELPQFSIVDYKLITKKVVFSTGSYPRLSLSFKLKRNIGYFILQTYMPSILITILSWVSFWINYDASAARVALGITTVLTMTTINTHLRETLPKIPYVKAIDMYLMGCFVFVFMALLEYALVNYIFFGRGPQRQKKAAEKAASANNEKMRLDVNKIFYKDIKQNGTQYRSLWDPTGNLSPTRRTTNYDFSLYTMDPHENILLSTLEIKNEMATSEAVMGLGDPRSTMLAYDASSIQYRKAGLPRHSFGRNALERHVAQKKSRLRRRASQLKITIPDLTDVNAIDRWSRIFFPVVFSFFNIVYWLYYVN
# T1 sequence (P18507 40-475): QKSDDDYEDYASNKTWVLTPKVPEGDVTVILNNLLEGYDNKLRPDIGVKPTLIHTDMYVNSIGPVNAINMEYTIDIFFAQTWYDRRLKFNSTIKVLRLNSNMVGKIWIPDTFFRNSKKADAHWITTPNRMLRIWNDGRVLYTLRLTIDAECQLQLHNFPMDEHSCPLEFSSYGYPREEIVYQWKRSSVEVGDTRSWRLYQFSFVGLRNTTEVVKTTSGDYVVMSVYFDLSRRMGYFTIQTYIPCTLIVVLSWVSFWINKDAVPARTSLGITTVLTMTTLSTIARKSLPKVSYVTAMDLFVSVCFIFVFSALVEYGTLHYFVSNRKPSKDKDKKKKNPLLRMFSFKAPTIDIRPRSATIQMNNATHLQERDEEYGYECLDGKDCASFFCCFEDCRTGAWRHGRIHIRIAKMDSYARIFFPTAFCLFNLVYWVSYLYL
# Protocol: (§1) Carbamazepine (CBZ) aggravates absence seizures in ‘generalized absence epilepsy rats from. Strasbourg’. One putative mechanism for the aggravation is through its reported potentiation of GABAA currents. A study was carried out to determine the effect of eslicarbazepine, R-licarbazepine and carbamazepine on sub-maximal GABA currents in Ltk cells stably expressing α1β2γ2, α2β2γ2, α3β2γ2 or α5β2γ2 GABA-receptors. The whole-cell patch-clamp technique was used to investigate the effects of the test compounds on GABAA receptors.
# (§2) Used Ltk cells were stably transfected with recombinant GABAA cDNAs: α1β2γ2, α2β2γ2, α3β2γ2 or α5β2γ2 (B'SYS GmbH, Switzerland). […] For the electrophysiological experiments cells were cultivated, at a density that enabled single cells to be measured, in medium without antibiotics or antimycotics. Cells were tested 24-48 hours following induction of transgene expression with dexamethasone.
# (§3) The whole-cell patch clamp recordings from transfected Ltk cells (voltage-clamped at a holding potential of −80 mV) were made using a EPC-7, HEKA Electronics amplifier. GABA inward-currents were measured upon application of 1 or 2 μM GABA to patch-clamped cells (at an EC5).
# (§4) Analysis of Variance (ANOVA) with post test multisample comparison (Dunnett) was conducted with GraphPad Prism 4 Software.
# α2β2γ2 GABA receptors = target: T2, α2β2γ2 GABA receptors (Homo sapiens, UniProt P18507+P47869+P47870); experiment: as above
# T2 construct: host or cells: Ltk cells, expression induced with dexamethasone
# T2 sequence (P47869 29-451): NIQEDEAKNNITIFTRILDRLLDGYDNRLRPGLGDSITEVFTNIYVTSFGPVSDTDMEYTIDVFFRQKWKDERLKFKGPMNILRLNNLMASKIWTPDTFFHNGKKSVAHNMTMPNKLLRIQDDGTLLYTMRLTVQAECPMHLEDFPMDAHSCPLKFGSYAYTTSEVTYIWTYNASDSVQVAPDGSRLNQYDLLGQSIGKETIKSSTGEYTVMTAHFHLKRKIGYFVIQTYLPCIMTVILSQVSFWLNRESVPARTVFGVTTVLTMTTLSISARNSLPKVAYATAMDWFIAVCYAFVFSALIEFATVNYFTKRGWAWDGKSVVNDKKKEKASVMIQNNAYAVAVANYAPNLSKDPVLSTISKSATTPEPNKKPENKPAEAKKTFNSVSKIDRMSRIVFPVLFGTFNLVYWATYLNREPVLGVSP
# T2 sequence (P47870 25-512 limits assumed): as the sequence (P47870 25-512 limits assumed) above
# T2 sequence (P18507 40-475): as the sequence (P18507 40-475) above
# Protocol: as §1, §2, §3, §4
# α3β2γ2 GABA receptors = target: T3, α3β2γ2 GABA receptors (Homo sapiens, UniProt P18507+P34903+P47870); experiment: as above
# T3 construct: host or cells: Ltk cells, expression induced with dexamethasone
# T3 sequence (P34903 29-492): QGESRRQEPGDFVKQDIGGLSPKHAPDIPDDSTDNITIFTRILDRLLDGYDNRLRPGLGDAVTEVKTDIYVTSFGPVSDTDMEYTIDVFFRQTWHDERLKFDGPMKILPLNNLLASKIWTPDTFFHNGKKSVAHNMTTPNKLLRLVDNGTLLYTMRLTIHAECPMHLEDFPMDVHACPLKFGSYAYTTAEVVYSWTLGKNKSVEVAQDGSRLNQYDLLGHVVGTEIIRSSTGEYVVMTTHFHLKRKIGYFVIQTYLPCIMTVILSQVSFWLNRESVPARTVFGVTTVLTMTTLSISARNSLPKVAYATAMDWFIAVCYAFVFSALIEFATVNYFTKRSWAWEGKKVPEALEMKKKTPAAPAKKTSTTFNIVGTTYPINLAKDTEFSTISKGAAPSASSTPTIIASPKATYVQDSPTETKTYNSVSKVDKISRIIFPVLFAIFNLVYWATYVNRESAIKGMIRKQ
# T3 sequence (P47870 25-512 limits assumed): as the sequence (P47870 25-512 limits assumed) above
# T3 sequence (P18507 40-475): as the sequence (P18507 40-475) above
# Protocol: as §1, §2, §3, §4
# α5β2γ2 GABA receptors = target: T4, α5β2γ2 GABA receptors (Homo sapiens, UniProt P18507+P31644+P47870); experiment: as above
# T4 construct: host or cells: Ltk cells, expression induced with dexamethasone
# T4 sequence (P31644 32-462): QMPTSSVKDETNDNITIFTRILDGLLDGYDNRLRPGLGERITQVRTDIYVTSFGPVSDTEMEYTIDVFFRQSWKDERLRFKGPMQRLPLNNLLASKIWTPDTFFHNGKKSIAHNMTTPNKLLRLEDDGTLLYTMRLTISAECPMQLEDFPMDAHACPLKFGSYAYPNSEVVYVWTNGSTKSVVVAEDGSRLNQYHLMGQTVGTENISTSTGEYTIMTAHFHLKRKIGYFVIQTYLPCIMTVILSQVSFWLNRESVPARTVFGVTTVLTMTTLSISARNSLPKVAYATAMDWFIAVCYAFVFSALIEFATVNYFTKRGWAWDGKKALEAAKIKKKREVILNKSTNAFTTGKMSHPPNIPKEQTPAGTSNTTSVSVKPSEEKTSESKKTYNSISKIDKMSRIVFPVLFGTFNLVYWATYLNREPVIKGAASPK
# T4 sequence (P47870 25-512 limits assumed): as the sequence (P47870 25-512 limits assumed) above
# T4 sequence (P18507 40-475): as the sequence (P18507 40-475) above
# Protocol: as §1, §2, §3, §4
# [1] = target: T5, human T-type calcium channels hCav3.2 (Homo sapiens, UniProt O95180); experiment: whole-cell patch-clamp, calcium peak currents in stably transfected HEK 293 cells; design: blocked calcium peak currents by: unit not given here; settings: for Relative current amplitude (%): hCav3.2 in HEK 293 cells; for IC50: two site binding model
# T5 construct: expressed in transfected cells; host or cells: HEK 293 cells (European Collection of Animal Cell Culture)
# Protocol: A study was carried out to determine the effect of eslicarbazepine.
# Cells were stably transfected with hCav3.2 cDNA.
# Calcium inward currents were measured upon depolarization of the cell membrane to −25 mV for 50 ms from a holding potential of −80 mV. This voltage protocol was run at intervals of 10 s until stabilization of evoked hCav3.2 currents. […] Vehicle was either bath solution or 0.2% DMSO.
# Analysis of variance (ANOVA) with post test multisample comparison (Dunnett) was conducted with GraphPad Prism 4 Software. IC50 were calculated with the equation: […]
# [2] = tested on: α1β2γ2, α2β2γ2, α3β2γ2 or α5β2γ2 GABA-receptors; experiment: overall effect on sub-maximal GABA currents (summary of Example 1); settings: Ltk cells, all four receptor subtypes
# Protocol: as §1
# Used Ltk cells were stably transfected with recombinant GABAA cDNAs: α1β2γ2, α2β2γ2, α3β2γ2 or α5β2γ2 (B'SYS GmbH, Switzerland). Cells were maintained in a humidified atmosphere (95% relative humidity) with 5% CO2 and were grown in D-MEM/F-12 (1×, liquid, with GlutaMax 1) supplemented with 9% foetal bovine serum and 0.9% Penicillin/Streptomycin solution (Gibco BRL). For the electrophysiological experiments cells were cultivated, at a density that enabled single cells to be measured, in medium without antibiotics or antimycotics. Cells were tested 24-48 hours following induction of transgene expression with dexamethasone.
# Cells were continuously perfused with bath solution (NaCl 137 mM, KCl 4 mM, CaCl2 1.8 mM, MgCl2 1 mM, D-Glucose 10 mM HEPES 10 mM, pH 7.4). […] GABA inward-currents were measured upon application of 1 or 2 μM GABA to patch-clamped cells (at an EC5). […]
# [3] = 50 μM with GABA at EC5, Ltk cells, Table 2
# [4] = 100 μM with GABA at EC5, Ltk cells, Table 2
# [5] = 250 μM with GABA at EC5, Ltk cells, Table 2
# [6] = 500 μM with GABA at EC5, Ltk cells, Table 2
# [7] = 1000 μM with GABA at EC5, Ltk cells, Table 2
# [8] = high affinity fit, read-out: hCav3.2 IC50 (μM) High affinity
# [9] = low affinity fit, read-out: hCav3.2 IC50 (μM) Low affinity
# [10] = 50 μM with GABA at EC5, Ltk cells, Table 1
# [11] = 100 μM with GABA at EC5, Ltk cells, Table 1
# [12] = 250 μM with GABA at EC5, Ltk cells, Table 1
# [13] = 500 μM with GABA at EC5, Ltk cells, Table 1
structure (smiles),measurement,setting,value
"NC(=O)N1c2ccccc2C=Cc2ccccc21 [Carbamazepine, 5H-dibenzo[b,f]azepine-5-carboxamide]",Current stimulation (%) α1β2γ2,α1β2γ2 GABA receptors; [3],104.30 ± 5.02%
same,Current stimulation (%) α1β2γ2,α1β2γ2 GABA receptors; [4],117.38 ± 4.94%
same,Current stimulation (%) α1β2γ2,α1β2γ2 GABA receptors; [5],115.68 ± 5.31%
same,Current stimulation (%) α1β2γ2,α1β2γ2 GABA receptors; [6],132.42 ± 5.31 %
same,Current stimulation (%) α1β2γ2,α1β2γ2 GABA receptors; [7],150.26 ± 15.48 %
same,Current stimulation (%) α2β2γ2,α2β2γ2 GABA receptors; [3],97.94 ± 3.34%
same,Current stimulation (%) α2β2γ2,α2β2γ2 GABA receptors; [4],111.36 ± 2.65%
same,Current stimulation (%) α2β2γ2,α2β2γ2 GABA receptors; [5],109.03 ± 7.61%
same,Current stimulation (%) α2β2γ2,α2β2γ2 GABA receptors; [6],103.60 ± 7.61%
same,Current stimulation (%) α2β2γ2,α2β2γ2 GABA receptors; [7],104.18 ± 2.66%
same,Current stimulation (%) α3β2γ2,α3β2γ2 GABA receptors; [3],93.32 ± 4.07%
same,Current stimulation (%) α3β2γ2,α3β2γ2 GABA receptors; [4],112.76 ± 5.40%
same,Current stimulation (%) α3β2γ2,α3β2γ2 GABA receptors; [5],131.06 ± 9.39%
same,Current stimulation (%) α3β2γ2,α3β2γ2 GABA receptors; [6],120.27 ± 11.81%
same,Current stimulation (%) α3β2γ2,α3β2γ2 GABA receptors; [7],166.66 ± 21.00 %
same,Current stimulation (%) α5β2γ2,α5β2γ2 GABA receptors; [3],103.82 ± 1.50%
same,Current stimulation (%) α5β2γ2,α5β2γ2 GABA receptors; [4],103.83 ± 4.53%
same,Current stimulation (%) α5β2γ2,α5β2γ2 GABA receptors; [5],93.59 ± 4.30%
same,Current stimulation (%) α5β2γ2,α5β2γ2 GABA receptors; [6],80.65 ± 5.86%
same,Current stimulation (%) α5β2γ2,α5β2γ2 GABA receptors; [7],63.01 ± 4.50 %
same,effect on hCav3.2 calcium peak currents (in words),[1],dose dependently inhibited
same,Relative current amplitude (%),[1]; 25 μM,87.58 ± 2.94%
same,Relative current amplitude (%),[1]; 50 μM,76.53 ± 5.48%
same,Relative current amplitude (%),[1]; 100 μM,69.98 ± 4.47%
same,Relative current amplitude (%),[1]; 250 μM,59.47 ± 6.06 %
same,Relative current amplitude (%),[1]; 500 μM,45.66 ± 7.45 %
same,IC50,[1]; [8],27.1 µM
same,IC50,[1]; [9],711 µM
COCC(=O)O[C@]1(CCN(C)CCCc2nc3ccccc3[nH]2)CCc2cc(F)ccc2[C@@H]1C(C)C [Mibefradil],effect on hCav3.2 calcium peak currents (in words),[1],dose dependently inhibited
Cc1ncc2n1-c1ccc(Cl)cc1C(c1ccccc1F)=NC2 [Midazolam],Current stimulation (%) α1β2γ2,"α1β2γ2 GABA receptors; 3 μM with GABA at EC5, Ltk cells, Table 1",184.81 ± 32.93 %
"NC(=O)N1c2ccccc2CC(=O)c2ccccc21 [Oxcarbazepine, 10,11-dihydro-10-oxo-5H-dibenz[b,f]azepine-5-carboxamide]",effect on hCav3.2 currents (in words),[1]; up to 30 μM,devoid of effect
NC(=O)N1c2ccccc2C[C@@H](O)c2ccccc21 [R-licarbazepine],Current stimulation (%) α1β2γ2,α1β2γ2 GABA receptors; [10],99.85 ± 1.18%
same,Current stimulation (%) α1β2γ2,α1β2γ2 GABA receptors; [11],92.53 ± 4.53%
same,Current stimulation (%) α1β2γ2,α1β2γ2 GABA receptors; [12],91.73 ± 4.69%
same,Current stimulation (%) α1β2γ2,α1β2γ2 GABA receptors; [13],95.83 ± 6.63%
same,Current stimulation (%) α2β2γ2,α2β2γ2 GABA receptors; [10],96.48 ± 2.11%
same,Current stimulation (%) α2β2γ2,α2β2γ2 GABA receptors; [11],97.03 ± 2.27%
same,Current stimulation (%) α2β2γ2,α2β2γ2 GABA receptors; [12],93.79 ± 3.09%
same,Current stimulation (%) α2β2γ2,α2β2γ2 GABA receptors; [13],87.75 ± 1.94 %
same,Current stimulation (%) α3β2γ2,α3β2γ2 GABA receptors; [10],99.53 ± 2.65%
same,Current stimulation (%) α3β2γ2,α3β2γ2 GABA receptors; [11],100.38 ± 1.56%
same,Current stimulation (%) α3β2γ2,α3β2γ2 GABA receptors; [12],102.94 ± 3.34%
same,Current stimulation (%) α3β2γ2,α3β2γ2 GABA receptors; [13],97.35 ± 2.91%
same,Current stimulation (%) α5β2γ2,α5β2γ2 GABA receptors; [10],96.13 ± 0.57%
same,Current stimulation (%) α5β2γ2,α5β2γ2 GABA receptors; [11],94.09 ± 1.27%
same,Current stimulation (%) α5β2γ2,α5β2γ2 GABA receptors; [12],97.24 ± 1.58%
same,Current stimulation (%) α5β2γ2,α5β2γ2 GABA receptors; [13],92.25 ± 1.29%
same,effect on hCav3.2 calcium peak currents (in words),[1],dose dependently inhibited
same,Relative current amplitude (%),[1]; 0.3 μM,98.42 ± 1.33%
same,Relative current amplitude (%),[1]; 1 μM,92.43 ± 1.41%
same,Relative current amplitude (%),[1]; 3 μM,88.21 ± 1.03 %
same,Relative current amplitude (%),[1]; 10 μM,82.92 ± 1.29 %
same,Relative current amplitude (%),[1]; 30 μM,78.21 ± 2.14 %
same,Relative current amplitude (%),[1]; 50 μM,73.86 ± 3.78 %
same,Relative current amplitude (%),[1]; 100 μM,71.61 ± 1.68 %
same,Relative current amplitude (%),[1]; 250 μM,64.52 ± 3.05 %
same,Relative current amplitude (%),[1]; 500 μM,58.10 ± 2.74 %
same,Relative current amplitude (%),[1]; 1000 μM,39.37 ± 5.33 %
same,IC50,[1]; [8],6.54 µM
same,IC50,[1]; [9],883 µM
same,effects upon sub-maximal GABA currents (in words),[2],devoid of effects
CCCC(CCC)C(=O)O [valproic acid],blocked calcium peak currents by,"[1]; 1 mM, n=8 cells",66.15±2.05
